Tests used:
[1] = tested on: MS sera; test: PEPSCAN-based ELISA, binding of MS sera to library peptides; set-up: species or system human; details: ELISA binding value, MS sera n = 9
Source text: (§1) The linear and CLIPS peptides are synthesized based on the amino acid sequence of the target protein using standard Fmoc-chemistry and deprotected using […] with scavengers. The constrained peptides are synthesized on chemical scaffolds in order to reconstruct conformational epitopes, using Chemically Linked Peptides on Scaffolds (CLIPS) technology (Timmerman et al. (2007). For example, the single looped peptides are synthesized containing a dicysteine, which was cyclized by treating with alpha, alpha′-dibromoxylene and the size of the loop is varied by introducing cysteine residues at variable spacing. If other cysteines besides the newly introduced cysteines are present, they are replaced by alanine. The side-chains of the multiple cysteines in the peptides are coupled to CLIPS templates by reacting onto credit-card format polypropylene PEPSCAN cards (455 peptide formats/card) with a 0.5 mM solution of CLIPS template such as 1,3-bis (bromomethyl) benzene in ammonium bicarbonate (20 mM, pH 7.9)/acetonitrile (1:1(v/v)). The cards are gently shaken in the solution for 30 to 60 minutes while completely covered in solution. Finally, the cards are washed extensively with excess of H2O and sonicated in distrupt-buffer containing 1 percent SDS/0.1 percent beta-mercaptoethanol in PBS (pH 7.2) at 70° C. for 30 minutes, followed by sonication in H2O for another 45 minutes.
(§2) The binding of antibody to each peptide is tested in a PEPSCAN-based ELISA. The 455-well credit card format polypropylene cards containing the covalently linked peptides are incubated with primary antibody solution for example consisting of 1/1000 diluted serum in blocking solution, for example 4% horse serum, 5% ovalbumin (w/v) in PBS/1% Tween. After washing, the peptides are incubated with a 1/1000 dilution of antibody peroxidase conjugate for one hour at 25° C. After washing, the peroxidase substrate 2,2′-azino-di-3-ethylbenzthiazoline sulfonate (ABTS) and 2 microlitres of 3 percent H2O2 are added. After one hour, the color development are measured. The color development are quantified with a charge coupled device (CCD)-camera and an image processing system (Slootstra et al., 1996).
(§3) The raw data are optical values obtained by a CCD-camera calibrated to export absorption values compatible with a standard 96-well plate ELISA-reader. First the CCD-camera makes a picture of the card before peroxidase coloring and then again a picture after the peroxidase coloring. These two pictures are substracted from each other yielding a binding value for each peptide.
(§4) All peptides have been synthesized in a peptide array format and the binding of 20 different sera to all peptide libraries were measured in an ELISA based set up following the procedure described in detail in the method section “Peptide synthesis and screening assays”. In particular 2 sets of experiments were performed on the 2 libraries by using 2 different dilutions of the human patients sera. In the first set of experiment the 20 sera were used at 1:2500 dilutions, while in the second experiment the dilution of the sera was 1:1000. The binding of the different sera to all peptides was quantified and analyzed in detail (Tables 1 and 2, FIGS. 15A, B, C, D and […]

[2] = tested on: CTRL sera; test: PEPSCAN-based ELISA, binding of control (CTRL) sera to library peptides; set-up: species or system human; details: ELISA binding value, CTRLs n = 10
Source text: as §1, §2, §3, §4

[3] = tested on: MS IgG; test: Indirect ELISA of MS IgG binding to receptor peptides; set-up: species or system human; details: 100 μM peptide; 200 μg immunoglobulins
Description: FIG. 6: Dose-response curves of the interaction between MS sera and DDSK peptide. (A) Sera of Multiple Sclerosis patients and Control (control group is defined in material and method below) (200 μg) were incubated with different concentrations (50-100-250 μM) of peptide DDSK. For the detection, inventors used a secondary antibody anti human IgG conjugated with HRP and (3,3′,5,5′-Tetramethylbenzidine) TMB solution that was added for each well and incubated for 15-30 min. Equal volume of stopping solution (2 M H2SO4) was added to the plate and absorbance (optical density) of plate was read at 450 nm. The statistical analysis derived from 9 experiments. Values are mean±SEM. *P<0.05 MS vs CTRL (B) Linear representation of dose-response curve Values are mean±SEM. *P<0.05 MS vs CTRL.
FIGS. 7A, 7B, 7C and 7D: MS sera recognize specially receptor's peptides. […] Equal volume of stopping solution (2 M H2SO4) was added to the plate and absorbance (optical density) of plate was read at 450 nm. […]
A. Sera of Multiple Sclerosis patients and Control (200 μg) were incubated in absence (uncoated) or presence of 100 μM of DDSK peptide. […] Equal volume of stopping solution (2 M H2SO4) was added to the plate and absorbance (optical density) of plate was read at 450 nm. […]
Diluted peptide (20 μg/ml) was coated to the wells of a PVC microtiter plate and incubated at 4° C. overnight. […] For the detection, we used a secondary antibody anti human (recognized constant region of the patient antibody conjugated with HRP and (3,3′,5,5′-Tetramethylbenzidine) TMB solution that was added for each well and incubated for 15-30 min. Equal volume of stopping solution (2 M H2SO4) was added to the plate and absorbance (optical density) of plate was read at 450 nm.
To evaluate the peptide concentration to use for ELISA assay we performed a dose-response curve. […] (named DDSK in the figures) and the absorbance (optical density) of plate was read at 450 nm. […]

[4] = tested on: MO3-13 cells; test: Determination of reactive oxygen species (DCF fluorescence) in MO3-13 cells; assay type: cell-based, human; details: 50 μM peptide 30 min, then 200 μg/ml IgG MS 30 min
Description: (§5) FIG. 10A: DDSK peptide reverts the effects of Ig from MS patients on ROS levels in MO3-13 cells. MO3-13 cells were grown to semi-confluence in 24 multiwell plates and incubated for 18 h in medium containing 0.2% FBS. The cells were washed twice with FBS free medium, incubated with 50 μM of DDSK for 30 min and then with 200 μg/ml of IgG from Control (IgGCtr) or MS (IgGMS) patients for 30 min. Then, the cells were incubated with 10 μM DCHF-DA for 10 min, washed three times and DCF fluorescence was measured using a plate reader fluorometer. The histograms show the mean+/−SEM values obtained in 5 different experiments from 7 control and 7 MS subjects. # p<0.05 vs IgGCtr; *p<0.05 vs IgGMS.
as §5, with “MO3-13” for “FIG. 10A: DDSK peptide reverts the effects of Ig from MS patients on ROS levels in MO3-13 cells. MO3-13”, “Scrambled peptide (Sc)” for “DDSK”, “obtained” for “obtained in 5 different experiments”, “3” for “7”, “subjects.” for “subjects. # p<0.05 vs IgGCtr;”, “IgGCtr.” for “IgGMS.”
ROS levels were determined using the membrane-permeant fluorogenic probe 5,6-carboxy-2′,7′-dichlorofluoresceindiacetate, DCHFDA (Molecular Probes, Leiden, the Netherlands). The assay was based on the fluorescence detection of dichlorofluorescein (DCF), formed by ROS-mediated oxidation of the non-fluorescent precursor, dichlorofluorescin.
MO3-13 cells were grown to semi-confluence in 24 multiwell plates (45000 cell/well) and incubated for 18 h in medium containing 0.2% FBS before the experiments. […] DCF fluorescence was measured using the plate reader Fluoroskan Ascent FL fluorometer (Thermo Electron Oy, Vantaa, Finland) and data analyzed by Ascent software.

What does the source list for LGDRQNESYLNFARK [SEQ ID NO: 104]?
MEAN MS ([1]; NOX2 library): 457.556; MEAN CTRL ([2]; NOX2 library): 252.4

Which “MEAN MS” value ([1]; NOX2 library) does the source give for LNFARKRIK [SEQ ID NO: 59] here?
The value was 557.056.

What about the “MEAN CTRL” value ([2]; NOX2 library) of the same sequence?
Its value is 294.6.

Which results are given for LNFARKRIKNAAGGL [SEQ ID NO: 91]?
MEAN MS ([1]; NOX2 library): 354.778; MEAN CTRL ([2]; NOX2 library): 187.85

LTILYGYRWPAASKL [Peptide 3] was tested. Which “MEAN MS” value ([1]; 5HT2A receptor library) did it give?
The value was 653.28.

What about the “MEAN CTRL” value ([2]; 5HT2A receptor library) of the same sequence?
Its value is 322.35.

With LTILYGYRWPLPSKL [Peptide 8] as the sequence, how does the “MEAN MS” value ([1]; 5HT2A receptor library) read?
The value was 647.17.

What about the “MEAN CTRL” value ([2]; 5HT2A receptor library) of the same sequence?
The value was 340.05.

LYGYRWPLPSKL was tested. Which “binding of MS IgG to peptide respect to scrambled” value [3] did it give?
Its value is “bind specifically”.

Which results are given for NESYLNFARKAAKNP [SEQ ID NO: 62]?
MEAN MS ([1]; NOX2 library): 505.278; MEAN CTRL ([2]; NOX2 library): 279.1

For NESYLNFARKRIKNP [SEQ ID NO: 109], which “MEAN MS” value ([1]; NOX2 library) is on record?
The value was 602.889.

What about the “MEAN CTRL” value ([2]; NOX2 library) of the same sequence?
The value was 333.75.

For NFARKRIKN [SEQ ID NO: 58], which “MEAN MS” value ([1]; NOX2 library) is on record?
Its value is 613.833.

What about the “MEAN CTRL” value ([2]; NOX2 library) of the same sequence?
Its value is 288.95.

What does the source list for NFARKRIKNPAAGLY [SEQ ID NO: 77]?
MEAN MS ([1]; NOX2 library): 604.167; MEAN CTRL ([2]; NOX2 library): 323.85

What does the source list for NITVCEQKISAAGKI [SEQ ID NO: 96]?
MEAN MS ([1]; NOX2 library): 564.500; MEAN CTRL ([2]; NOX2 library): 314.2

Which results are given for QDDSKVFKEGAALLA [Peptide 33]?
MEAN MS ([1]; 5HT2A receptor library): 439.11; MEAN CTRL ([2]; 5HT2A receptor library): 263.70

Which results are given for QKISEWGKI [SEQ ID NO: 146]?
MEAN MS ([1]; NOX2 library): 508.333; MEAN CTRL ([2]; NOX2 library): 298.2

With QKISEWGKIKAAPIP [SEQ ID NO: 88] as the sequence, how does the “MEAN MS” value ([1]; NOX2 library) read?
The value was 701.889.

And the “MEAN CTRL” value ([2]; NOX2 library)?
Its value is 364.3.

For QNESYLNFARAAIKN [SEQ ID NO: 113], which “MEAN MS” value ([1]; NOX2 library) is on record?
Its value is 421.722.

And the “MEAN CTRL” value ([2]; NOX2 library)?
Its value is 244.

What does the source list for QNESYLNFARKRIKN [SEQ ID NO: 63]?
MEAN MS ([1]; NOX2 library): 610.778; MEAN CTRL ([2]; NOX2 library): 309.65

RQNESYLNFARKRIK [SEQ ID NO: 76] was tested. Which “MEAN MS” value ([1]; NOX2 library) did it give?
The value was 458.833.

And the “MEAN CTRL” value ([2]; NOX2 library)?
The value was 241.2.

Which “MEAN MS” value ([1]; 5HT2A receptor library) does the source give for STTNSLMQLNAATRL [Peptide 31] here?
The value was 611.83.

What about the “MEAN CTRL” value ([2]; 5HT2A receptor library) of the same sequence?
Its value is 385.15.

With SYLNFARKRIAAPEG [SEQ ID NO: 71] as the sequence, how does the “MEAN MS” value ([1]; NOX2 library) read?
The value was 472.000.

And the “MEAN CTRL” value ([2]; NOX2 library)?
The value was 259.75.

What does the source list for TILYGYRWPLPSKLC [Peptide 29]?
MEAN MS ([1]; 5HT2A receptor library): 651.50; MEAN CTRL ([2]; 5HT2A receptor library): 378.20

What does the source list for TVCEQKISEWGKIKE [SEQ ID NO: 94]?
MEAN MS ([1]; NOX2 library): 514.944; MEAN CTRL ([2]; NOX2 library): 289.4

For TVDSENRTNLAAEGC [Peptide 23], which “MEAN MS” value ([1]; 5HT2A receptor library) is on record?
Its value is 587.33.

What about the “MEAN CTRL” value ([2]; 5HT2A receptor library) of the same sequence?
Its value is 348.10.

With “TWYAHNCRLQ [Scrambled peptides, scrambled peptide used as negative control, reference compound]” as the sequence, how does the “effect of peptide preincubation on ROS levels of IgG MS treated cells” value [4] read?
The value was “did not influence”.

Which results are given for VNARVNNSDPAAVAL [SEQ ID NO: 118]?
MEAN MS ([1]; NOX2 library): 426.444; MEAN CTRL ([2]; NOX2 library): 219.15

Which “MEAN MS” value ([1]; NOX2 library) does the source give for WCVNARVNNSDPYSV [SEQ ID NO: 121] here?
The value was 283.889.

What about the “MEAN CTRL” value ([2]; NOX2 library) of the same sequence?
The value was 163.8.

What does the source list for WGKIKECPI [SEQ ID NO: 116]?
MEAN MS ([1]; NOX2 library): 501.389; MEAN CTRL ([2]; NOX2 library): 303.25

For YLNFARKRI [SEQ ID NO: 140], which “MEAN MS” value ([1]; NOX2 library) is on record?
Its value is 601.667.

And the “MEAN CTRL” value ([2]; NOX2 library)?
The value was 345.85.

What does the source list for YLNFARKRIKAAEGG [SEQ ID NO: 119]?
MEAN MS ([1]; NOX2 library): 299.167; MEAN CTRL ([2]; NOX2 library): 181.3

YRWPLPSKL [Peptide 5] was tested. Which “MEAN MS” value ([1]; 5HT2A receptor library) did it give?
The value was 566.00.

And the “MEAN CTRL” value ([2]; 5HT2A receptor library)?
The value was 285.70.
